Assay [1] has as its system osteoporosis. Put plainly: Activity on bones found by the inventors (general statement).
Assay [2] relates to rats. Put plainly: Lifelong administration to rats (general statement on bone). It is filed as in vivo, rat. The source says:
One aspect of the present invention has been perfected based on the above findings. […] These findings are literally epochal in the light of the fact that the conventional pharmaceutical compositions for adjusting bone metabolism is found to be only capable of restoring bones having abnormality due to morbidity near to normality.

[3] abbreviates: lifelong administration to rats.

For the compound `C=C1CC[C@H](O)C/C1=C/C=C1\CCC[C@]2(C)[C@@H]([C@H](C)CCC(O)C(C)(C)O)CC[C@@H]12` (stereo partly shown) [24,25-(OH)2 -D3, 24,25-dihydroxy cholecalciferol], the activity on osteoporosis result in assay [1] is “activity of preventing osteoporosis”. Besides, in assay [2] (setting [3]), the bone quality entry is recorded as “without affecting the bone quality” and the bone volume result was “increasing bone volume”. In assay [2] (normal mammal, extension of the lifelong rat experiment), the “bone strength vs non-administered normal mammals” value was “clearly surpassing the average bone strength of non-administered normal mammals”.

For the origin of these results see US5001118A, “Method for preventing senescence and increasing bone mass” (priority 1986, dated 1991).
